Here are results for nine molecules from PubChem BioAssay (NCI).

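All cell lines were grown in 96-well plates and treated with compound for 48 hours. At the GI50, growth is halved. At the TGI there is no net growth.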 A value given as a limit tells only on which side of the number the result lay.

Some test systems named below: 786-0 renal; MDA-MB-231 breast; BT-549 breast; HCT-15 colon; A549 NSCLC; OVCAR-5 ovarian; CAKI-1 renal; CCRF-CEM leukemia; NCI-H226 lung; K-562 leukemia.
Common to all, as to test: NCI anticancer screen, dose series, 48 h

On to `Cc1cc(N(CCNc2ccnc3cc(Cl)ccc23)Cc2ccco2)nc(Cl)n1`, for which the GI50 in the assay with 786-0 renal is 1.57 µM; in the assay with MDA-MB-231 breast it was 1.68 µM; in the assay with BT-549 breast, 1.69 µM; in the assay with HCT-15 colon it was 1.64 µM; in the assay with A549 NSCLC, 1.85 µM; in the assay with OVCAR-5 ovarian, 1.68 µM. The TGI is 2.91 µM in the assay with 786-0 renal; 3.24 µM in the assay with MDA-MB-231 breast; 3.14 µM in the assay with BT-549 breast; 3.19 µM in the assay with HCT-15 colon; 3.42 µM with A549 NSCLC; 3.23 µM in the assay on OVCAR-5 ovarian.
Consider `CC1OC(OC2C(O[C@H]3CC[C@@]4(C)C(=CC[C@H]5[C@@H]6C[C@@H]7O[C@]8(CC[C@H](C)CN8)[C@@H](C)[C@@H]7[C@@]6(C)CC[C@@H]54)C3)OC(CO)C(O)C2OC2OC(CO)C(O)C(O)C2O)C(O)C(O)C1O` (some centres undefined), for which the TGI in the assay with 786-0 renal was found to be 51 µM; with MDA-MB-231 breast it was 38.8 µM; with BT-549 breast, 30.9 µM; in the assay with HCT-15 colon, 30.3 µM; with CAKI-1 renal, 34 µM; with CCRF-CEM leukemia it was 39.3 µM. Further, the results for the TGI in the assay on A549 NSCLC, in the assay with OVCAR-5 ovarian and in the assay with NCI-H226 lung were 34.5 µM, 28.7 µM and 38.2 µM, respectively.
As to `N#CSCC1CC(O)(c2ccccc2)CC(c2ccc(F)cc2)O1` (centres undefined), the GI50 in the assay on 786-0 renal was 1.61 µM; in the assay on K-562 leukemia, 2.14 µM; with MDA-MB-231 breast it was 1.97 µM; with BT-549 breast, 1.94 µM; in the assay on HCT-15 colon, 1.76 µM; in the assay with CAKI-1 renal it was 2.54 µM. Moreover, the GI50 is 1.72 µM in the assay with CCRF-CEM leukemia, 3.86 µM in the assay with A549 NSCLC and 2.32 µM in the assay on OVCAR-5 ovarian. The TGI is 3.27 µM in the assay with 786-0 renal; 7.31 µM with K-562 leukemia; 4.2 µM with MDA-MB-231 breast; 4.31 µM in the assay with BT-549 breast; 4.89 µM with HCT-15 colon; 8.5 µM with CAKI-1 renal. The TGI turned out to be 6.08 µM in the assay with CCRF-CEM leukemia, 18.5 µM in the assay with A549 NSCLC and 5.28 µM with OVCAR-5 ovarian.
As for `COc1cc(/C=C/C(=O)c2ccc(NC(=O)CN3CCN(c4cc5c(cc4F)c(=O)c(C(=O)O)cn5C4CC4)CC3)cc2)cc(OC)c1OC`, the GI50 was 0.947 µM in the assay with 786-0 renal; 0.36 µM in the assay with K-562 leukemia; 0.712 µM with MDA-MB-231 breast; 0.405 µM with BT-549 breast; 0.575 µM with HCT-15 colon; 1.47 µM in the assay with CAKI-1 renal. For the same molecule, the GI50 in the assay on A549 NSCLC is 0.368 µM; with OVCAR-5 ovarian, 2.96 µM; in the assay on NCI-H226 lung it was 1.52 µM. Further, the TGI in the assay on 786-0 renal was 3.19 µM; with K-562 leukemia, > 100 µM; in the assay with MDA-MB-231 breast it was 6.36 µM; with BT-549 breast it was 1.44 µM; in the assay with HCT-15 colon it was > 100 µM; in the assay on CAKI-1 renal, > 32.5 µM. The TGI with A549 NSCLC was 2.14 µM; in the assay on OVCAR-5 ovarian it was > 27.1 µM; in the assay on NCI-H226 lung it was > 51 µM.
Regarding `C=C1CCC2C(C)(C)CCC[C@]2(C)[C@H]1CO` (some centres undefined), the GI50 in the assay on 786-0 renal was 57.3 µM; in the assay on K-562 leukemia, 73.8 µM; in the assay on MDA-MB-231 breast, 50.2 µM; in the assay with BT-549 breast it was 47.9 µM; in the assay with HCT-15 colon it was 56.9 µM; with CAKI-1 renal, > 100 µM. Besides, the GI50 in the assay on A549 NSCLC is 73.9 µM; in the assay with OVCAR-5 ovarian, 93.5 µM; in the assay on NCI-H226 lung, 94.5 µM. The TGI in the assay with 786-0 renal, with K-562 leukemia, in the assay with MDA-MB-231 breast, in the assay on BT-549 breast, with HCT-15 colon and with CAKI-1 renal was > 100 µM throughout. Also, the TGI in the assay on A549 NSCLC, with OVCAR-5 ovarian and in the assay with NCI-H226 lung was > 100 µM in each case.
As to `Cc1c(COc2cc(OCc3cccc(C#N)c3)c(CN3C[C@H](O)C[C@@H]3C(=O)O)cc2Cl)cccc1-c1ccc2c(c1)OCCO2`, the GI50 in the assay on 786-0 renal was 3.87 µM; in the assay on K-562 leukemia it was 3.43 µM; with MDA-MB-231 breast, 13.8 µM; in the assay with BT-549 breast, 7.58 µM; with HCT-15 colon it was 13.7 µM; in the assay with CAKI-1 renal it was 14.5 µM. Moreover, the GI50 is 22.1 µM in the assay with A549 NSCLC, 17.3 µM in the assay with OVCAR-5 ovarian and 8.86 µM in the assay on NCI-H226 lung. Also, the TGI was 15.3 µM in the assay with 786-0 renal; > 100 µM with K-562 leukemia; 29.6 µM in the assay with MDA-MB-231 breast; 21.8 µM with BT-549 breast; 26.7 µM in the assay on HCT-15 colon; 27.6 µM with CAKI-1 renal. In addition, the TGI is 55.3 µM in the assay with A549 NSCLC, 31 µM in the assay with OVCAR-5 ovarian and 31.9 µM with NCI-H226 lung.
Consider `O=C1c2ccccc2C(=O)c2c1ccc(C1C(=O)c3ccccc3C1=O)c2-c1c(C2C(=O)c3ccccc3C2=O)ccc2c1C(=O)c1ccccc1C2=O`, for which the TGI with 786-0 renal, in the assay with K-562 leukemia, with MDA-MB-231 breast, in the assay with BT-549 breast, in the assay on HCT-15 colon and in the assay on CAKI-1 renal was > 100 µM throughout. The TGI in the assay on A549 NSCLC, with OVCAR-5 ovarian and with NCI-H226 lung was > 100 µM throughout.
For `Cc1cccc2c(=O)c3c(sc12)c(NCCNCCO)nc1ccccc13`, the GI50 in the assay with 786-0 renal was 1.83 µM; with MDA-MB-231 breast it was 1.23 µM; in the assay on BT-549 breast, 1.58 µM; in the assay with HCT-15 colon it was 1.46 µM; in the assay with CAKI-1 renal it was 1.25 µM; in the assay on CCRF-CEM leukemia, 1.85 µM. Also, the GI50 is 1.47 µM in the assay with A549 NSCLC, 1.61 µM in the assay with OVCAR-5 ovarian and 1.56 µM with NCI-H226 lung. In addition, the TGI came to 3.51 µM in the assay with 786-0 renal; 2.62 µM with MDA-MB-231 breast; 3.35 µM in the assay on BT-549 breast; 2.89 µM in the assay with HCT-15 colon; 2.56 µM in the assay with CAKI-1 renal; 3.73 µM with CCRF-CEM leukemia. For the same molecule, the TGI came out at 3.19 µM in the assay with A549 NSCLC, 3.06 µM with OVCAR-5 ovarian and 3.32 µM with NCI-H226 lung.
`Cc1occc1C(=S)Nc1ccc(Cl)c(C(=O)OC(C)C2CC2)c1` (centres undefined): the TGI in the assay on 786-0 renal was 52.5 µM; with MDA-MB-231 breast, 45.7 µM; with BT-549 breast, 54.5 µM; in the assay on HCT-15 colon, 41.2 µM; in the assay on CAKI-1 renal, 48.8 µM; in the assay with CCRF-CEM leukemia, > 100 µM. Also, the TGI was > 100 µM in the assay with A549 NSCLC, 61.2 µM in the assay on OVCAR-5 ovarian and 33.6 µM in the assay with NCI-H226 lung.
